According to patent US8211662B2, “Nitroreductase enzymatic substrates” (Biomerieux, priority 2007, dated 2012):

Legend:
[1] = tested on: S. aureus (including MRSA) 10 strains; assay: Detection of various strains of S. aureus in the presence of substrates; format: cell-based, Staphylococcus aureus; conditions: for No. of strains detected, S. aureus (including MRSA): 10 strains
[2] = tested on: S. epidermidis 2 strains; assay: as above; format: cell-based
Protocol: (§1) A mass of 40 mg of each substrate was dissolved in 4 ml of dimethylformamide (DMF). This solution was entirely taken up in 400 ml of Columbia agar autoclaved beforehand and kept molten at 50° C. The final concentration for each substrate was 100 mg/l.
(§2) Each of the media was distributed into Petri dishes 90 mm in diameter, in a proportion of 20 ml per dish.
18 microorganism strains derived from collections and belonging to various species of bacteria and of yeasts were inoculated onto these media by semi-quantitative isolation of 10 μl of a suspension at 0.5 McFarland diluted to 1/20. […]

[3] = tested on: Enterococcus 6 strains; assay: as above; format: cell-based
[4] = tested on: MRSA NCTC 11939; assay: Nitroreductase detection on Columbia agar, colonies read under UV; format: cell-based, Staphylococcus aureus; set-up: key: − = no fluorescence detected; +/− = weak fluorescence; + = medium fluorescence; ++ = strong fluorescence; conditions: 100 mg/l in Columbia agar, 24 h 37° C., UV 360-365 nm
Protocol: as §1, §2
(§3) 18 microorganism strains derived from collections and belonging to various species of bacteria and of yeasts were inoculated onto these media by semi-quantitative isolation of 10 μl of a suspension at 0.5 McFarland diluted to 1/20. The media were incubated for 24 hours at 37° C., then the colonies formed were examined visually under UV illumination at 360-365 nm.

[5] = tested on: Enterobacter cloacae NCTC 11936; assay: as above; format: cell-based; set-up: key: − = no fluorescence detected; +/− = weak fluorescence; + = medium fluorescence; ++ = strong fluorescence; conditions: 100 mg/l in Columbia agar, 24 h 37° C., UV 360-365 nm
Protocol: as §1, §2, §3

[6] = tested on: Bacillus subtilis NCTC 9372; assay: as above; format: cell-based; set-up: key: − = no fluorescence detected; +/− = weak fluorescence; + = medium fluorescence; ++ = strong fluorescence; conditions: 100 mg/l in Columbia agar, 24 h 37° C., UV 360-365 nm
Protocol: as §1, §2, §3

[7] = tested on: Enterococcus faecalis NCTC 775; assay: as above; format: cell-based; set-up: key: − = no fluorescence detected; +/− = weak fluorescence; + = medium fluorescence; ++ = strong fluorescence; conditions: 100 mg/l in Columbia agar, 24 h 37° C., UV 360-365 nm
Protocol: as §1, §2, §3

[8] = tested on: Candida albicans ATCC 90028; assay: as above; format: cell-based; set-up: key: − = no fluorescence detected; +/− = weak fluorescence; + = medium fluorescence; ++ = strong fluorescence; conditions: 100 mg/l in Columbia agar, 24 h 37° C., UV 360-365 nm
Protocol: as §1, §2, §3

[9] = tested on: Yersinia enterocolitica NCTC 11176; assay: as above; format: cell-based; set-up: key: − = no fluorescence detected; +/− = weak fluorescence; + = medium fluorescence; ++ = strong fluorescence; conditions: 100 mg/l in Columbia agar, 24 h 37° C., UV 360-365 nm
Protocol: as §1, §2, §3

[10] = tested on: Staphylococcus aureus NCTC 6571; assay: as above; format: cell-based; set-up: key: − = no fluorescence detected; +/− = weak fluorescence; + = medium fluorescence; ++ = strong fluorescence; conditions: 100 mg/l in Columbia agar, 24 h 37° C., UV 360-365 nm
Protocol: as §1, §2, §3

[11] = tested on: Staphylococcus epidermidis NCTC 11047; assay: as above; format: cell-based; set-up: key: − = no fluorescence detected; +/− = weak fluorescence; + = medium fluorescence; ++ = strong fluorescence; conditions: 100 mg/l in Columbia agar, 24 h 37° C., UV 360-365 nm
Protocol: as §1, §2, §3

[12] = tested on: Serratia marcescens NCTC 10211; assay: as above; format: cell-based; set-up: key: − = no fluorescence detected; +/− = weak fluorescence; + = medium fluorescence; ++ = strong fluorescence; conditions: 100 mg/l in Columbia agar, 24 h 37° C., UV 360-365 nm
Protocol: as §1, §2, §3

[13] = tested on: Enterococcus faecium NCTC 7171; assay: as above; format: cell-based; set-up: key: − = no fluorescence detected; +/− = weak fluorescence; + = medium fluorescence; ++ = strong fluorescence; conditions: Table 4; 100 mg/l in Columbia agar, 24 h 37° C., UV 360-365 nm
Protocol: as §1, §2, §3

[14] = tested on: Listeria monocytogenes NCTC 11994; assay: as above; format: cell-based; set-up: key: − = no fluorescence detected; +/− = weak fluorescence; + = medium fluorescence; ++ = strong fluorescence; conditions: 100 mg/l in Columbia agar, 24 h 37° C., UV 360-365 nm
Protocol: as §1, §2, §3

[15] = tested on: Citrobacter freundii 46262 (wild); assay: as above; format: cell-based; set-up: key: − = no fluorescence detected; +/− = weak fluorescence; + = medium fluorescence; ++ = strong fluorescence; conditions: Table 4; 100 mg/l in Columbia agar, 24 h 37° C., UV 360-365 nm
Protocol: as §1, §2, §3

[16] = tested on: Escherichia coli NCTC 10418; assay: as above; format: cell-based; set-up: key: − = no fluorescence detected; +/− = weak fluorescence; + = medium fluorescence; ++ = strong fluorescence; conditions: 100 mg/l in Columbia agar, 24 h 37° C., UV 360-365 nm
Protocol: as §1, §2, §3

[17] = tested on: Providencia rettgeri NCTC 7475; assay: as above; format: cell-based; set-up: key: − = no fluorescence detected; +/− = weak fluorescence; + = medium fluorescence; ++ = strong fluorescence; conditions: Table 4; 100 mg/l in Columbia agar, 24 h 37° C., UV 360-365 nm
Protocol: as §1, §2, §3

[18] = tested on: Streptococcus pyogenes NCTC 8306; assay: as above; format: cell-based; set-up: key: − = no fluorescence detected; +/− = weak fluorescence; + = medium fluorescence; ++ = strong fluorescence; conditions: 100 mg/l in Columbia agar, 24 h 37° C., UV 360-365 nm
Protocol: as §1, §2, §3

[19] = tested on: Pseudomonas aeruginosa NCTC 10662; assay: as above; format: cell-based; set-up: key: − = no fluorescence detected; +/− = weak fluorescence; + = medium fluorescence; ++ = strong fluorescence; conditions: 100 mg/l in Columbia agar, 24 h 37° C., UV 360-365 nm
Protocol: as §1, §2, §3

[20] = tested on: Salmonella typhimurium NCTC 74; assay: as above; format: cell-based; set-up: key to Intensity of fluorescence, Salmonella typhimurium NCTC 74 / F: fluorescence (intensity), Salmonella typhimurium NCTC 74 / Intensity of the fluorescence, Salmonella typhimurium NCTC 74: − = no fluorescence detected; +/− = weak fluorescence; + = medium fluorescence; ++ = strong fluorescence
Protocol: as §1, §2, §3

[21] = tested on: Candida glabrata NCPF 3943; assay: as above; format: cell-based; set-up: key to Intensity of fluorescence, Candida glabrata NCPF3943 / F: fluorescence (intensity), Candida glabrata NCPF 3943 / Intensity of the fluorescence, Candida glabrata NCPF 3943: − = no fluorescence detected; +/− = weak fluorescence; + = medium fluorescence; ++ = strong fluorescence; conditions: 100 mg/l in Columbia agar, 24 h 37° C., UV 360-365 nm
Protocol: as §1, §2, §3

[22] = tested on: Staph spp 12 strains; assay: Detection of various strains of S. aureus in the presence of substrates; format: cell-based
[23] = tested on: Acinetobacter baumanii ATCC 19606; assay: Nitroreductase detection on Columbia agar, colonies read under UV; format: cell-based; set-up: key to Intensity of fluorescence, Acinetobacter baumanii ATCC 19606 / Intensity of the fluorescence, Acinetobacter baumanii ATCC 19606: − = no fluorescence detected; +/− = weak fluorescence; + = medium fluorescence; ++ = strong fluorescence
Protocol: as §1, §2, §3

[24] = tested on: Morganella morganii 462403 (wild); assay: as above; format: cell-based; set-up: key to Intensity of fluorescence, Morganella morganii 462403 / F: fluorescence (intensity), Morganella morganii 462403 (wild) / Intensity of the fluorescence, Morganella morganii 462403 (wild): − = no fluorescence detected; +/− = weak fluorescence; + = medium fluorescence; ++ = strong fluorescence; conditions: 100 mg/l in Columbia agar, 24 h 37° C., UV 360-365 nm
Protocol: as §1, §2, §3

[25] = 100 mg/l in Columbia agar, 24 h 37° C., UV 360-365 nm
[26] = Table 4, 100 mg/l in Columbia agar, 24 h 37° C., UV 360-365 nm

SMILES: O=[N+]([O-])c1ccc(F)cc1-c1nc2ccccc2s1 [Substrate 15]
- Distinguishing or identifying Staphylococcus aureus strains, in particular MRSA, from most of the other Gram-positive bacterial strains [1]: make it possible to distinguish or identify the Staphylococcus aureus strains
- No. of strains detected, S. aureus (including MRSA) ([1]; 24 h): 10
- No. of strains detected, S. aureus (including MRSA) ([1]; 48 h): 10
- No. of strains detected, S. epidermidis ([2]; 24 h): 0
- No. of strains detected, S. epidermidis ([2]; 48 h): 2
- No. of strains detected, Enterococcus ([3]; 24 h): 0
- No. of strains detected, Enterococcus ([3]; 48 h): 1
- Intensity of fluorescence, Staphylococcus aureus NCTC 11939 [4]: ++
- Intensity of the fluorescence, MRSA NCTC 11939 ([4]; Table 4): ++
- Intensity of fluorescence, Enterobacter cloacae NCTC 11936 [5]: ++
- Intensity of the fluorescence, Enterobacter cloacae NCTC 11936 ([5]; Table 4): ++
- Intensity of fluorescence, Bacillus subtilis NCTC 9372 [6]: −
- Intensity of the fluorescence, Bacillus subtilis NCTC 9372 ([6]; Table 4): −
- Intensity of fluorescence, Enterococcus faecalis NCTC 775 [7]: −
- Intensity of the fluorescence, Enterococcus faecails NCTC 775 ([7]; Table 4): −
- Intensity of fluorescence, Candida albicans ATCC 90028 [8]: −
- Intensity of the fluorescence, Candida albicans ATCC 90028 ([8]; Table 4): −
- Intensity of fluorescence, Yersinia enterocolitica NCTC 11176 [9]: −
- Intensity of the fluorescence, Yersinia enterocolitica NCTC 11176 ([9]; Table 4): −
- Intensity of fluorescence, Staphylococcus aureus NCTC 6571 [10]: ++
- Intensity of the fluorescence, Staphylococcus aureus NCTC 6571 ([10]; Table 4): ++
- Intensity of fluorescence, Staphylococcus epidermidis NCTC 11047 [11]: −
- Intensity of the fluorescence, Staphylococcus epidermidis NCTC 11047 ([11]; Table 4): −
- Intensity of fluorescence, Serratia marcescens NCTC 10211 [12]: ++
- Intensity of the fluorescence, Serratia marcescens NCTC 10211 ([12]; Table 4): ++
- Intensity of the fluorescence, Enterococcus faecium NCTC 7171 [13]: −
- Intensity of fluorescence, Listeria monocytogenes NCTC 11994 [14]: −
- Intensity of the fluorescence, Listeria monocytogenes NCTC 11994 ([14]; Table 4): −
- Intensity of the fluorescence, Citrobacter freundii 46262 (wild) [15]: ++
- Intensity of fluorescence, Escherichia coli NCTC 10418 [16]: ++
- Intensity of the fluorescence, Escherichia coli NCTC 10418 ([16]; Table 4): ++
- Intensity of the fluorescence, Providencia rettgeri NCTC 7475 [17]: ++
- Intensity of fluorescence, Streptococcus pyogenes NCTC 8306 [18]: −
- Intensity of the fluorescence, Streptococcus pyogenes NCTC 8306 ([18]; Table 4): −
- Intensity of fluorescence, Pseudomonas aeruginosa NCTC 10662 [19]: −
- Intensity of the fluorescence, Pseudomonas aeruginosa NCTC 10662 ([19]; Table 4): +
- Intensity of fluorescence, Salmonella typhimurium NCTC 74 [20, 25]: ++
- Intensity of the fluorescence, Salmonella typhimurium NCTC 74 [20, 26]: ++
- Salmonella typhimurium result with the substrate ([20]; table 2): strongly positive
- Intensity of fluorescence, Candida glabrata NCPF3943 [21]: −
- Intensity of the fluorescence, Candida glabrata NCPF 3943 ([21]; Table 4): −
- No. of strains detected, Staph spp ([22]; 24 h): 12
- No. of strains detected, Staph spp ([22]; 48 h): 12
- Intensity of fluorescence, Acinetobacter baumanii ATCC 19606 [23, 25]: +
- Intensity of the fluorescence, Acinetobacter baumanii ATCC 19606 [23, 26]: +
- Distinguishing Pseudomonas aeruginosa from Acinetobacter baumanii ([23]; table 2): make it possible to distinguish Pseudomonas aeruginosa from Acinetobacter baumanii
- Intensity of fluorescence, Morganella morganii 462403 [24]: ++
- Intensity of the fluorescence, Morganella morganii 462403 (wild) ([24]; Table 4): ++
